# Test results from patent publication US5409933A, “Quinoline derivatives and processes for preparing the same” (priority 1993, dated 1995).
# Structures can show the parent of a compound that is named as a salt. Where two headings read alike, the source gives them in different places.
# Assays:
# Test in all cases: In Vitro Anti-Bacterial Activity Test (MIC, agar dilution)
# Format in all cases: cell-based
# [1] = system: Staphylococcus aureus 503
# How it was run: (§1)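 Ciprofloxacin was the control antibacterial in this Muller-Hinton agar dilution test. Cultures of 10^7 C.F.U./ml grew for 18 hours at 37° C., and inhibition of growth set the MIC.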
# [2] = system: Staphylococcus aureus 285; settings: Staphylococcus aureus, 285, 18 h
# How it was run: as §1
# Escherichia coli 078 = system: Escherichia coli 078
# How it was run: as §1
# Enterobacter cloacae P99 = settings: Enterobacter cloacae, P99, 18 h
# How it was run: (§2)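 Muller-Hinton agar dilution method. Inoculum 10^7 C.F.U./ml; 37° C., 18 h. Endpoint: minimum inhibitory concentration by growth inspection. Ciprofloxacin control.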
# [3] = system: Pseudomonas aeruginosa 1771; settings: Pseudomonas aeruginosa 1771; Muller-Hinton agar, 37° C., 18 hours; read-out: MIC
# How it was run: as §1
# [4] = system: Pseudomonas aeruginosa 1592E; settings: Muller-Hinton agar, 37° C., 18 hours, read-out: MIC
# How it was run: as §1
# [5] = system: Pseudomonas aeruginosa 9027; settings: Muller-Hinton agar, 37° C., 18 hours, read-out: MIC
# How it was run: as §1
# [6] = system: Staphylococcus aureus SG511
# How it was run: as §1
# Klebsiella oxytoca 1082E = settings: Klebsiella oxytoca 1082E; Muller-Hinton agar, 37° C., 18 hours; read-out: MIC
# How it was run: as §1
# [7] = system: Klebsiella aerogenes 1522E; settings: Klebsiella aerogenes, 1522E, 18 h
# How it was run: as §1
# Escherichia coli DC2 = settings: Escherichia coli, DC2, 18 h
# How it was run: as §1
# [8] = system: Streptococcus faecium MD8b; settings: Enterococcus faecium, Muller-Hinton agar, 37° C., 18 hours, read-out: MIC
# How it was run: as §1
# Salmonella typhimurium = settings: Salmonella enterica; Salmonella typhimurium; Muller-Hinton agar, 37° C., 18 hours; read-out: MIC
# How it was run: as §1
# [9] = system: Pseudomonas aeruginosa 1771M; settings: Pseudomonas aeruginosa, 1771M, 18 h, Muller-Hinton agar, 37° C.
# How it was run: as §1
# Escherichia coli 1507E = settings: Muller-Hinton agar, 37° C.
# How it was run: as §1
# [10] = system: Streptococcus pyogenes 308A; settings: Muller-Hinton agar, 37° C., 18 hours, read-out: MIC
# How it was run: as §1
# Escherichia coli TEM = settings: Escherichia coli, 18 h, Muller-Hinton agar, 37° C.
# How it was run: as §2
# [11] = system: Streptococcus pyogenes 77A
# How it was run: as §1
# Escherichia coli DC0 = settings: Muller-Hinton agar, 37° C., 18 hours, read-out: MIC
# How it was run: as §1
# [12] = system: Enterobacter cloacae 1321E; settings: Enterobacter cloacae 1321E; Muller-Hinton agar, 37° C., 18 hours; read-out: MIC
# How it was run: as §1
# [13] = Staphylococcus aureus 503, Muller-Hinton agar, 37° C., 18 hours, read-out: MIC
# [14] = Staphylococcus aureus 285, Muller-Hinton agar, 37° C., 18 hours, read-out: MIC
# [15] = Staphylococcus aureus SG511, Muller-Hinton agar, 37° C., 18 hours, read-out: MIC
# [16] = Streptococcus pyogenes 77A, Muller-Hinton agar, 37° C., 18 hours, read-out: MIC
# [17] = Klebsiella aerogenes 1522E, Muller-Hinton agar, 37° C., 18 hours, read-out: MIC
# [18] = Streptococcus pyogenes, 77A, 18 h
Compound,"MIC [1, 13] [µg/mL]","MIC [2, 14] [µg/mL]","MIC (Escherichia coli 078; Escherichia coli, 078, 18 h) [µg/mL]",MIC (Enterobacter cloacae P99) [µg/mL],MIC [3] [µg/mL],MIC [4] [µg/mL],MIC [5] [µg/mL],"MIC [6, 15] [µg/mL]",MIC (Klebsiella oxytoca 1082E) [µg/mL],MIC (Escherichia coli DC2) [µg/mL],MIC [8] [µg/mL],MIC (Salmonella typhimurium) [µg/mL],MIC [9] [µg/mL],"MIC (Escherichia coli 1507E; Escherichia coli, 1507E, 18 h) [µg/mL]",MIC [10] [µg/mL],MIC (Escherichia coli TEM) [µg/mL],"MIC [11, 16] [µg/mL]",MIC (Escherichia coli DC0) [µg/mL],MIC [12] [µg/mL],"MIC [7, 17] [µg/mL]",further results
"CCOC(=O)C(C#N)C(=O)c1cn(C2CC2)c2c(Cl)c(N3CC4=C(CNC4)C3)c(F)cc2c1=O (centres unmarked) [Example 41, 1-cyclopropyl-6-fluoro-8-chloro-7-(3,7-diazabicyclo[3.3.0]oct-1,5-en-3-yl)-3-(2-cyano-2-ethoxycarbonylacetyl)-1,4-dihydro-4-oxoquinoline hydrochloride]",6.25,6.25,0.049,0.098,3.12,3.12,6.25,3.12,0.049,1.56,25,0.098,1.56,0.391,25,0.195,12.5,3.12,0.049,,MIC [7]: 0.195 µg/mL
"CN[C@@H]1CCN(c2c(F)cc3c(=O)c(C(=O)C[N+](=O)[O-])cn(C4CC4)c3c2OC)C1 [Example 64, 1-cyclopropyl-6-fluoro-8-methoxy-7-(3-3R-methylaminopyrrolidin-1-yl)-3-(2-nitroacetyl)-1,4-dihydro-4-oxoquinoline hydrochloride]",0.098,0.098,0.049,0.049,0.781,1.56,1.56,0.391,0.007,0.049,0.391,0.013,0.781,0.098,0.781,0.049,,0.391,0.049,0.098,"MIC [11, 18]: 0.781 µg/mL"
"CC(=O)CC(=O)c1cn(C2CC2)c2c(Cl)c(N3CCC(N)C3)c(F)cc2c1=O (centres unmarked) [Example 37, 1-cyclopropyl-6-fluoro-8-chloro-7-(3-aminopyrrolidin-1-yl)-3-(2-acetoacetyl)-1,4-dihydro-4-oxoquinoline hydrochloride]",0.781,0.781,0.391,0.195,1.56,3.12,1.56,0.781,0.195,0.391,3.12,0.195,0.781,0.195,1.56,0.098,3.12,0.781,0.195,0.391,
"CCOC(=O)C(C(N)=O)C(=O)c1cn(C2CC2)c2c(Cl)c(N3CCC(N)C3)c(F)cc2c1=O (centres unmarked) [Example 52, 1-cyclopropyl-6-fluoro-8-chloro-7-(3-aminopyrrolidin-1-yl)-3-(2-amido-2-ethoxycarbonylacetyl)-1,4-dihydro-4-oxoquinoline hydrochloride]",0.025,0.025,0.007,0.004,0.391,0.391,0.781,0.025,< 0.002,0.025,0.391,0.013,0.098,,0.195,< 0.002,0.391,0.049,< 0.002,0.013,"MIC (Escherichia coli 1507E; 18 hours, read-out: MIC): 0.004 µg/mL"
"CCOC(=O)C(C(=O)OCC)C(=O)c1cn(C2CC2)c2c(Cl)c(N3CC4=C(CNC4)C3)c(F)cc2c1=O [Example 36, 1-cyclopropyl-6-fluoro-8-chloro-7-(3,7-diazabicyclo[3.3.0]oct-1,5-en-3-yl)-3-(2,2-diethoxycarbonylacetyl)-1,4-dihydro-4-oxoquinoline hydrochloride]",0.049,0.049,0.007,0.025,0.781,0.781,1.56,0.025,0.007,0.049,0.195,0.025,0.195,0.025,0.391,0.025,0.098,0.195,0.025,0.025,
"CS(=O)(=O)CC(=O)c1cn(C2CC2)c2c(Cl)c(N3CC4=C(CNC4)C3)c(F)cc2c1=O [Example 47, 1-cyclopropyl-6-fluoro-8-chloro-7-(3,7-diazabicyclo[3.3.0]oct-1,5-en-3-yl)-3-(2-methanesulfonylacetyl)-1,4-dihydro-4-oxoquinoline hydrochloride]",0.391,,0.195,0.049,0.781,0.781,1.56,0.391,0.098,0.391,0.781,0.098,0.195,0.391,1.56,0.195,,0.781,0.049,0.049,"MIC [2]: 0.195 µg/mL; MIC [11, 18]: 0.781 µg/mL"
"N[C@@H]1CCN(c2c(F)cc3c(=O)c(C(=O)C[N+](=O)[O-])cn(C4CC4)c3c2Cl)C1 [Example 12, 1-cyclopropyl-6-fluoro-8-chloro-7-(3-3R-aminopyrrolidin-1-yl)-3-(2-nitroacetyl)-1,4-dihydro-4-oxoquinoline hydrochloride]",,,,0.004,0.195,0.391,0.391,,< 0.002,0.049,0.098,< 0.002,0.049,,0.391,0.004,0.195,0.098,< 0.002,,"MIC ([1]; Staphylococcus aureus, 503, 18 h): 0.025 µg/mL; MIC [2]: 0.025 µg/mL; MIC (Escherichia coli 078; Escherichia coli 078, Muller-Hinton agar, 37° C., 18 hours, read-out: MIC): < 0.002 µg/mL; MIC ([6]; Staphylococcus aureus, SG511, 18 h): 0.025 µg/mL; MIC [7]: 0.025 µg/mL; MIC (Escherichia coli 1507E; 18 hours, read-out: MIC): 0.004 µg/mL"
